Patent publication EP0231622B1, “Inhibition of the 5-lipoxygenase pathway” (priority 1985, dated 1987)
Read-outs that look alike come from different tables or passages of the source.

Tests used:
[1] = tested on: Arachidonic Acid-Induced Rat Paw Edema; experiment: Arachidonic acid-induced rat paw swelling; assay type: in vivo, Lewis rats; conditions: 100 mg/kg, read at 2 hours
Excerpt: In the following Examples where mice were used, they were male Balb/c mice (20-28 g), and where rats were used, they were male Lewis rats (180-210 g). All mice and rats were obtained from Charles River Breeding Laboratories, Kingston, N.Y. Within a single experiment, mice and rats were sex and age matched.
The compounds of Formula (IA) were used either as the free base or in the appropriate salt form. Levamisole was used as the hydrochloride salt. The compounds were homogenized in 0.5% tragacanth. Compounds were administered by gavage at the indicated dose in a final volume of 10 ml/kg. Nordihydroguaiaretic acid (NDGA) was solubilized in dimethylacetamide and diluted with olive oil for subcutaneous administration.

[2] = tested on: Cyclooxygenase; experiment: Cyclooxygenase activity (PGD2) in 10,000 x g supernatant of RBL-1 cells; assay type: biochemical; conditions: text b252; RBL-1 cell extracts; read-out: IC₅₀ PGD₂ production
[3] = molecular target: T1, 5-Lipoxygenase (Rattus norvegicus, UniProt P12527); experiment: 5-HETE production by RBL-1 high speed supernatant; assay type: biochemical
T1 construct: The activities of these enzymes in extracts of RBL-1 cells were assayed; host or cells: RBL-1 cells, disrupted by nitrogen cavitation; 10,000 x g or 100,000 x g supernatant
T1 sequence (P12527 1-673): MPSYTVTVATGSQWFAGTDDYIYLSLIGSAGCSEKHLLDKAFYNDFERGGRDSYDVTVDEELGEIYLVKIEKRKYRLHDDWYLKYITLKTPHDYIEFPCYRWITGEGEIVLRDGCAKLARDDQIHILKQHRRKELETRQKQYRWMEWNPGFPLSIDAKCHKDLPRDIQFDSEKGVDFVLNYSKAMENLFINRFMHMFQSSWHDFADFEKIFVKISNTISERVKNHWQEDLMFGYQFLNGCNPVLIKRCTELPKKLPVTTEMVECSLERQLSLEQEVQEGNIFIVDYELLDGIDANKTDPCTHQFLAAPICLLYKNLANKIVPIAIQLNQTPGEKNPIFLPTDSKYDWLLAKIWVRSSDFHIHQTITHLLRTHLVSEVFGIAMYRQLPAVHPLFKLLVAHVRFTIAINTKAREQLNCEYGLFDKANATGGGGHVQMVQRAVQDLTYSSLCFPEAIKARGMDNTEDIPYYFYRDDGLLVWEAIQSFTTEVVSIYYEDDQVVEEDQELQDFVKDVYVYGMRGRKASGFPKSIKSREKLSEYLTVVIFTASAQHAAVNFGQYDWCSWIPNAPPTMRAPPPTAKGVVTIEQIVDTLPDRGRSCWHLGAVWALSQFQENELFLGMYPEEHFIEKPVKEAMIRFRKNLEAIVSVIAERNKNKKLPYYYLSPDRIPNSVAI
Method: (§1) For in vitro experiments, compounds were dissolved at appropriate concentrations in ethanol or DMSO (dimethylsulfoxide) (final concentration <1.0%) and then diluted to final concentrations using the buffers indicated in the text.
The activities of these enzymes in extracts of RBL-1 cells were assayed using the method of Jakschik and Lee, Nature, 287, 51-52 (1980). RBL-1 cells were obtained from the American Type Culture Collection (#CRL 1378) and were grown at 37°C (5% CO₂ in air) in spinner culture in MEM supplemented with 10% heat inactivated fetal calf serum. Harvested cells were washed with 50 mM sodium phosphate buffer, pH 7.0, containing 1 mM EDTA and 0.1% gelatin, resuspended in fresh buffer (5 x 10⁷ cells/ml) and disrupted by nitrogen cavitation using the Parr bomb at 750 psi for 10 min. The broken cell extract was then centrifuged at 10,000 x g for 20 minutes and the supernatant centrifuged at 100,000 x g for 60 minutes. Aliquots (0.25 mls) of the supernatant were preincubated with or without drugs for 10 min, after which 10 ul CaCl₂ (50 mM) was added and the reaction was initiated with 2.5 ul of 2.5 mM arachidonic acid-1-¹⁴C (final concentration was […]; specific activity 20,000 dpm/nmole). After incubation for 3 min at 37°C, the reaction was terminated by addition of 2 volumes (0.5 ml) ice cold acetone and the sample was allowed to deproteinize on ice for 10 min prior to centrifugation at 1,000 x g for 10 min. The deproteinized supernatant was adjusted to pH 3.5 with 2N formic acid and extracted with 2 volumes of ice cold ethyl acetate. The extracted samples were dried under argon, redissolved in ethyl acetate and applied to Whatman LK5D thin layer chromatography (TLC) plates which were developed using the A-9 solvent system [organic phase of ethyl acetate: 2,2,5-trimethylpentane:acetic acid: water (110:50:20:10)] described by Hamberg and Samuelsson, J. Biol. Chem., 241, 257-263 (1966). Arachidonic acid, 5-HETE, di-HETE and PGD₂ were quantified with a Berthold LB 2832 autoscanner.
The 5-lipoxygenase and LTA₄ synthetase activities were further studied under the following conditions. An additional centrifugation of the RBL-1 supernatant was run at 100,000 x g for 60 min, to remove the particulate cyclooxygenase activity. Sample incubation was done under conditions similar to those described above, i.e., 2 mM CaCl₂ and 25 uM arachidonic acid-1-¹⁴C, however, with an incubation time of 5 min at […]. Under these conditions, only the 5-lipoxygenase pathway metabolites were detectable. The 5-HETE and di-HETEs were formed at a linear rate, and […] amounts of the arachidonic acid-1-¹⁴C substrate were utilized.

[4] = molecular target: T2, 5-LO (Rattus norvegicus, UniProt P12527); experiment: di-HETE production by RBL-1 high speed supernatant; assay type: biochemical
T2 construct: The activities of these enzymes in extracts of RBL-1 cells were assayed; host or cells: RBL-1 cells, disrupted by nitrogen cavitation; 10,000 x g or 100,000 x g supernatant
T2 sequence (P12527 1-673): T1 sequence (P12527 1-673)
Procedure, shortened: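 RBL-1 cell 100,000 x g supernatant was preincubated 10 min with compound, then given CaCl₂ and 25 uM [¹⁴C]arachidonic acid for 3 min at 37°C. 5-HETE and di-HETE were quantified by TLC radioscanning. A variant re-centrifuged the supernatant and incubated 5 min at 5°C with 2 mM CaCl₂.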

[5] = tested on: Production of PGE₂ by Mouse Peritoneal Exudate Cells; experiment: PGE2 production by peritoneal macrophages; assay type: cell-based
Method: as §1
Mice were injected intraperitoneally with 350 »g Corynebacterium parvum and the peritoneal exudate cell population was harvested 12-14 days later by peritoneal lavage with cold phosphate-buffered saline, and resuspended in Eagles minimal essential medium supplemented with 5% fetal calf serum. […] Test compounds were added (100 ul) to bring the final volume to 1.0 ml. Lipopolysaccharide (5 »g/ml) was then added to stimulate PGE₂ synthesis. After incubation at 37°C for 2 hours, cell-free supernatants were harvested, placed in polypropylene tubes and frozen at -20°C until assayed for their PGE₂ content using a commercial radioimmunoassay kit. IC₅₀ is the concentration that inhibits 50% of control activity.

IC50 [2]: 100 µM | 5-HETE (nM/ml) ([3]; 1 uM): 8.86 ± 0.31 nM/ml | inhibition at 1 µM ([3]; 1 uM, read-out: % Control (5-HETE)): 12.7% | 5-HETE (nM/ml) ([3]; 3.3 uM): 7.63 ± 0.44 nM/ml | inhibition at 3.3 µM ([3]; 3.3 uM, read-out: % Control (5-HETE)): 24.9% | 5-HETE (nM/ml) ([3]; 10 uM): 5.57 ± 0.35 nM/ml | inhibition at 10 µM ([3]; 10 uM, read-out: % Control (5-HETE)): 45.1% | 5-HETE (nM/ml) ([3]; 33 uM): 3.36 ± 0.07 nM/ml | inhibition at 33 µM ([3]; 33 uM, read-out: % Control (5-HETE)): 67.9% | 5-HETE (nM/ml) ([3]; 100 uM): 1.08 ± 0.13 nM/ml | inhibition at 100 µM ([3]; 100 uM, read-out: % Control (5-HETE)): 89.4% | Di-HETE (nM/ml) ([4]; 1 uM): 1.56 ± 0.06 nM/ml | inhibition at 1 µM ([4]; 1 uM, read-out: % Control (Di-HETE)): 19.7% | Di-HETE (nM/ml) ([4]; 3.3 uM): 1.34 ± 0.12 nM/ml | inhibition at 3.3 µM ([4]; 3.3 uM, read-out: % Control (Di-HETE)): 30.9% | Di-HETE (nM/ml) ([4]; 10 uM): 0.88 ± 0.21 nM/ml | inhibition at 10 µM ([4]; 10 uM, read-out: % Control (Di-HETE)): 54.8% | Di-HETE (nM/ml) ([4]; 33 uM): 0.40 ± 0.08 nM/ml | inhibition at 33 µM ([4]; 33 uM, read-out: % Control (Di-HETE)): 79.6% | Di-HETE (nM/ml) ([4]; 100 uM): 0.03 ± 0.04 nM/ml | inhibition at 100 µM ([4]; 100 uM, read-out: % Control (Di-HETE)): 98.3% | IC50 ([4]; soluble extract of RBL-1 cells containing only lipoxygenase activity, read-out: IC₅₀ eicosanoid formation (di-HETE production)): 7.5 µM | IC50 ([5]; Macrophage, read-out: IC₅₀ production of PGE₂ by inflammatory macrophages): 0.7 µM | IC50 ([5]; Peritoneal macrophage, Table 10, LPS-stimulated, C. parvum-elicited peritoneal exudate cells, read-out: IC₅₀ (»M) production of PGE₂): 0.7 µM
SMILES: Fc1ccc(-c2nc3n(c2-c2ccncc2)CCS3)cc1 [Compound 1, 5-(4-pyridyl)-6-(4-fluorophenyl)-2,3-dihydroimidazo[2,1-b]thiazole]
Change in Paw Volume ([1]; one hour before arachidonic acid): 0.06 ± 0.05 mL | (% Inhibition) of change in paw volume [1]: 78%
